Several values for one entry are separate records, joined by “and”; a condition that tells them apart may be missing. Identical values can stand only once. Like-named read-outs stand apart in the source and are kept apart here.
Legend:
[1] = target: SARS-CoV-2 NSP3 macrodomain (Mac1) (Severe acute respiratory syndrome coronavirus 2, UniProt P0DTD1); assay: biochemical; type: binding; conditions: for SARS CoV-2 macrodomain HTRF assay: Hillslope: dose-response fit; for IC50: read-out: IC50
[2] = target: SARS-CoV-2 NSP3 macrodomain (Mac1), P43 crystal form (Severe acute respiratory syndrome coronavirus 2, UniProt P0DTD1); type: binding; conditions: for 1-BDC: PanDDA background density correction; for Hit (PanDDA run, overall) / Hit (PanDDA run, DMSO background map) / 1-BDC (PanDDA run, DMSO background map): crystal soak 10 mM; for 1-BDC (PanDDA run, DMSO background map) / PanDDA run, DMSO background map: 1-BDC: event 1; for Total number of conformations: ligand conformations modeled in Mac1 crystal structure; for X-ray crystallography: Binding site: site where the ligand is bound in the X-ray crystal structure; for X-ray crystal structure: TRUE = crystal structure with ligand determined; for Binding site: site of Mac1 where ligand bound in crystal structure
[3] = occupancy estimate from PanDDA BDC
[4] = Single dose, 200 μM, mean of three technical replicates
[5] = crystal soak, soak concentration 10 mM, P43 crystals, TRUE = ligand-binding event identified
[6] = crystal soak, soak concentration 10 mM
[7] = crystal soak, soak concentration 10 mM, TRUE = ligand modeled
[8] = occupancy estimate from PanDDA 1-BDC
[9] = Dose-response, SARS CoV-2 macrodomain HTRF assay
[10] = Single dose, 200 μM, mean of three technical replicates, read-out: Average % competition
[11] = preliminary screen, compound at 200 μM, mean of 3-4 technical replicates, read-out: % competition in HTRF assay
[12] = crystal soak concentration 20 mM
[13] = crystal soak concentration 20 mM, P43 crystals
[14] = crystal soak concentration 10 mM
[15] = crystal soak concentration 10 mM, P43 crystals

Compound	Occupancy difference (refined_occupancy - 2*(1-BDC)) [2]	Refined ligand occupancy (%) [2] [%]	1-BDC [2]	Total number of conformations [2]	2*(1-BDC) (%) [2, 3] [%]	Average % competition [1, 4] [%]	X-ray crystal structure [2]	Pandda run, overall: Hit [2, 5]	PanDDA run, DMSO background map: Hit [2, 6]	PanDDA run, DMSO background map: 1-BDC [2, 6]	2*(1-BDC) (%) [2, 8] [%]	Binding site [2]	inhibition at 200 µM [1, 10] [%]	inhibition at 200 µM [1, 11] [%]	PanDDA run, DMSO background map: Hit [2, 12]	PanDDA run, DMSO background map: 1-BDC [2, 12]	Pandda run, overall: Hit [2, 13]	Pandda run, overall: Modeling comment [2, 13]	PanDDA run, DMSO background map: 1-BDC [2, 14]	Pandda run, overall: Hit [2, 15]	also measured
C[C@H]1CC[C@H](CO)N(c2ncnc3[nH]ccc23)C1 (racemic) [AVI-4063]	18	50	0.16	1	32	–	–	–	–	–	–	–	–	–	–	–	–	–	–	–	Hill slope ([1]; HTRF dose-response fit, Mac1): 1.1; SARS CoV-2 macrodomain HTRF assay: Hillslope [1]: 1.1; Hit (PanDDA run, overall) ([2]; P43 crystals): TRUE; Hit (PanDDA run, DMSO background map) [2]: TRUE; 1-BDC (PanDDA run, DMSO background map) [2]: 0.21 and 0.16; X-ray crystallography: Binding site [2]: Adenosine
C[C@@H]1CCN(c2ncnc3[nH]ccc23)[C@H](CO)C1 (racemic) [AVI-4064]	0	38	0.19	2	38	–	–	–	–	–	–	–	–	–	–	–	–	–	–	–	Hill slope ([1]; HTRF dose-response fit, Mac1): 1.2; SARS CoV-2 macrodomain HTRF assay: Hillslope [1]: 1.2; Hit (PanDDA run, overall) ([2]; P43 crystals): TRUE; Hit (PanDDA run, DMSO background map) [2]: TRUE; 1-BDC (PanDDA run, DMSO background map) [2]: 0.19; X-ray crystallography: Binding site [2]: Adenosine
c1ccc(-n2nnnc2CSc2nnc(NC3CC3)s2)cc1 [AVI-286]	–	–	0.11	1	–	0	TRUE	TRUE	TRUE	0.11	22	Distal	–	–	–	–	–	–	–	–	PanDDA run, DMSO background map: Modeled [2, 6]: TRUE; Pandda run, overall: Modeled [2, 7]: TRUE
O=C(O)C(c1ccccc1)n1sc2ccccc2c1=O (stereo not drawn) [AVI-288]	0	74	0.37	1	74	–	TRUE	TRUE	TRUE	0.26	–	Adenosine	21	21	TRUE	0.37	TRUE	–	–	–	IC50 [1, 9]: > 1000 µM; PanDDA run, DMSO background map: Modeled [2, 12]: TRUE; Pandda run, overall: Modeled [2, 13]: TRUE; Pandda run, overall: Modeling comment [2, 6]: Duplicate, not modeled
CC(C)n1nnnc1SCc1c(C(=O)O)sc2cccc(F)c12 [AVI-291]	0	68	0.34	1	68	–	TRUE	TRUE	TRUE	0.25	–	Adenosine	41	41	TRUE	0.34	TRUE	Second ligand conformation, not modeled, DMSO x2	–	–	IC50 [1, 9]: > 1000 µM; Comment ([2]; comment on ligand modeling / Phe132 loop density): Second ligand conformation, not modeled, DMSO x2; PanDDA run, DMSO background map: Modeled [2, 12]: TRUE; Pandda run, overall: Modeled [2, 13]: TRUE; Pandda run, overall: Modeling comment [2, 6]: Duplicate, not modeled
Nc1nnc(SCCn2c(=O)oc3ccccc32)s1 [AVI-296]	–	–	0.06	1	–	7	TRUE	TRUE	TRUE	0.06	12	Distal	–	–	–	–	–	–	–	–	PanDDA run, DMSO background map: Modeled [2, 6]: TRUE; Pandda run, overall: Modeled [2, 7]: TRUE
CCn1c(C)nnc1Sc1cnc2ccccc2n1 [AVI-297]	–	–	–	–	–	0	–	TRUE	TRUE	0.05	–	–	–	–	–	–	–	–	–	–	Pandda run, overall: Modeling comment [2, 6]: Only density for quinoxaline, not modeled
COc1ccc(NC(=O)NC2CCCC2)cc1-n1nnnc1C [AVI-311]	–	–	–	–	–	0	–	–	–	–	–	–	–	–	TRUE	0.12	TRUE	Weak density, not modeled	0.09	TRUE	Pandda run, overall: Modeling comment [2, 15]: Weak density, not modeled; PanDDA run, DMSO background map: Hit [2, 14]: TRUE
OCC(Cc1ccccc1)Nc1ncnc2[nH]ccc12 (stereo not drawn) [AVI-313]	–	–	0.18	2	–	–	TRUE	–	–	–	36	Adenosine	75	75	TRUE	0.25	TRUE	Duplicate, not modeled	0.18	TRUE	Hill slope [1, 9]: 1.2; Hill slope ([1]; HTRF dose-response fit, Mac1): 1.2; Pandda run, overall: Modeled [2, 15]: TRUE; PanDDA run, DMSO background map: Hit [2, 14]: TRUE; PanDDA run, DMSO background map: Modeled [2, 14]: TRUE
O=C(Nc1ccsc1C(=O)O)c1ccc2c(c1)OCO2 [AVI-316]	–	–	0.07	1	–	–	TRUE	–	–	–	14	Adenosine	29	29	TRUE	0.12	TRUE	Duplicate, not modeled	0.07	TRUE	IC50 [1, 9]: > 1000 µM; Pandda run, overall: Modeled [2, 15]: TRUE; PanDDA run, DMSO background map: Hit [2, 14]: TRUE; PanDDA run, DMSO background map: Modeled [2, 14]: TRUE
Cc1sc2ncnc(Sc3ccccc3C(=O)O)c2c1C [AVI-317]	–	–	0.15	2	–	–	TRUE	–	–	–	30	Adenosine	24	24	–	–	–	–	0.17 and 0.15	TRUE	PanDDA run, DMSO background map: 1-BDC [2]: 0.18; Pandda run, overall: Modeled [2, 15]: TRUE; Pandda run, overall: Modeling comment [2, 15]: Duplicate, not modeled; PanDDA run, DMSO background map: Hit [2, 14]: TRUE; PanDDA run, DMSO background map: Modeled [2, 14]: TRUE

From doi:10.1101/2024.08.25.609621 (bioRxiv, 2024)
